In patent US11959083B2, “Immunosuppression-reverting oligonucleotides inhibiting the expression of CD39” (Secarna Pharmaceuticals GmbH & Co. KG, priority 2016, dated 2024):
l = locked nucleic acid (LNA); d = 2'-deoxy (DNA)

How the values were obtained:
Format in all cases: cell-based, human
hCD39 mRNA [1] = test: hCD39 mRNA knockdown efficacy screen in A-172 cells (single dose, gymnotic delivery, QuantiGene Singleplex); conditions: 10 μM, 3 days; for Residual hCD39 mRNA expression relative to untreated cells (set as 1): third screening round; for Mean hCD39 mRNA expression (relative to untreated cells set as 1): first screening round; for Mean hCD39 mRNA expression (relative to untreated cells set as 1) / Relative hCD39 mRNA expression (compared to non-treated cells): normalized to HPRT1; for Relative hCD39 mRNA expression (compared to non-treated cells): second screening round
Summary of the method: (§1)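 Antisense oligonucleotides given once at 10 μM without transfection reagent (gymnotic) to HDLM-2 or A-172 cells for 3 days. hCD39 mRNA measured by QuantiGene Singleplex, normalized to HPRT1 and expressed relative to untreated cells; triplicate means.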

hCD39 mRNA [2] = test: hCD39 mRNA knockdown efficacy screen in HDLM-2 cells (single dose, gymnotic delivery, QuantiGene Singleplex); design: key to Relative hCD39 mRNA expression (compared to non-treated cells): *: values are below detection limit; conditions: 10 μM, 3 days; for Residual hCD39 mRNA expression relative to untreated cells (set as 1): third screening round; for Mean hCD39 mRNA expression normalized to HPRT1 relative to untreated control = 1: first screening round; for Relative hCD39 mRNA expression (compared to non-treated cells): second screening round, normalized to HPRT1
Summary of the method: as §1

hCD39 mRNA [3] = test: IC50 determination / concentration-dependent hCD39 mRNA knockdown in HDLM-2 cells; conditions: for mRNA inhibition: HDLM-2, 3 days; for IC50: HDLM-2 cells, hCD39 mRNA, 3 days
Experimental: HDLM-2 cells were treated for 3 days with the indicated concentration of the respective antisense oligonucleotide. Residual hCD39 expression is depicted compared to untreated control cells. hCD39 mRNA expression values were normalized to expression of the housekeeping gene HPRT1.
The antisense oligonucleotide A04040H (SEQ ID No. 3) that had shown potent activity in the first and second screening round was used as reference. HDLM-2 cells treated for 3 days with the indicated concentrations of the respective antisense oligonucleotide. hCD39 mRNA expression values were normalized to expression of the housekeeping gene HPRT1. Residual hCD39 mRNA expression relative to untreated cells (set as 100) is depicted. Depicted is the mean of triplicate wells+/−SD.
In a second experiment the concentration-dependency of effects and the IC50 values of hCD39 antisense oligonucleotides A04010H (SEQ ID No.14), A04016H (SEQ ID No.20), A04017H (SEQ ID No.21), A04020H (SEQ ID No. 24) and A04026H (SEQ ID No.30) were tested. […] HDLM-2 cells were treated with titrated amounts of the respective antisense oligonucleotide (concentrations: 10 μM, 3.3 μM, 1.1 μM, 370 nM, 120 nM, 41 nM, 14 nM, 4.5 nM). hCD39 mRNA expression was analyzed after three days of treatment. FIG. 5 and Table 9 depicts the concentration-dependent reduction of hCD39 mRNA expression by the selected hCD39 antisense oligonucleotides.
The hCD39 antisense oligonucleotides A04051H (SEQ ID No.88), A04052H (SEQ ID No.89), A04053H ([…]), A04056H (SEQ ID No.92), A04059H (SEQ ID No.94), A04060H (SEQ ID No.95), and A04061H (SEQ ID No.96) had shown potent single-dose activity in both HDLM-2 and A-172 cells. […] The antisense oligonucleotide A04040H that had shown potent activity in the first screening round was used as reference. hCD39 mRNA expression was analyzed after 3 days of treatment. FIG. 7 depicts the concentration-dependent reduction of hCD39 expression by hCD39 antisense oligonucleotides.

[4] = third screening round (Table 12)
[5] = second screening round (Table 9)
[6] = first screening round (Table 8)

| Substance | Residual hCD39 mRNA expression relative to untreated cells (set as 1) (hCD39 mRNA [1]) | Residual hCD39 mRNA expression relative to untreated cells (set as 1) (hCD39 mRNA [2]) | Mean hCD39 mRNA expression (relative to untreated cells set as 1) (hCD39 mRNA [1]) | Relative hCD39 mRNA expression (compared to non-treated cells) (hCD39 mRNA [1]) | Mean hCD39 mRNA expression normalized to HPRT1 relative to untreated control = 1 (hCD39 mRNA [2]) | Relative hCD39 mRNA expression (compared to non-treated cells) (hCD39 mRNA [2]) | mRNA inhibition (hCD39 mRNA [3]; 0.0045 μM, Table 9) [%] | mRNA inhibition (hCD39 mRNA [3]; 0.013 μM, Table 9) [%] | mRNA inhibition (hCD39 mRNA [3]; 0.04 μM, Table 9) [%] | mRNA inhibition (hCD39 mRNA [3]; 0.12 μM, Table 9) [%] | mRNA inhibition (hCD39 mRNA [3]; 0.4 μM, Table 9) [%] | mRNA inhibition (hCD39 mRNA [3]; 1.1 μM, Table 9) [%] | mRNA inhibition (hCD39 mRNA [3]; 3.3 μM, Table 9) [%] | mRNA inhibition (hCD39 mRNA [3]; 10 μM, Table 9) [%] | IC50 (hCD39 mRNA [3]; [5]) [nM] | mRNA inhibition (hCD39 mRNA [3]; 0.0045 μM, Table 8) [%] | mRNA inhibition (hCD39 mRNA [3]; 0.013 μM, Table 8) [%] | mRNA inhibition (hCD39 mRNA [3]; 0.04 μM, Table 8) [%] | mRNA inhibition (hCD39 mRNA [3]; 0.12 μM, Table 8) [%] | mRNA inhibition (hCD39 mRNA [3]; 0.4 μM, Table 8) [%] | further results |
| --- | --- | --- | --- | --- | --- | --- | --- | --- | --- | --- | --- | --- | --- | --- | --- | --- | --- | --- | --- | --- | --- |
| +G*+G*+T*T*T*G*T*G*T*G*A*G*A*G*C*+T (antisense GGTTTGTGTGAGAGCT; sugars from the 5' end l3 d12 l1, all phosphorothioate, methylation of C not given here) [A04060H] | 0.08 | 0.01 | – | – | – | – | – | – | – | – | – | – | – | – | – | – | – | – | – | – | mRNA inhibition (hCD39 mRNA [3]; 0.45 nM, Table 12): 0.00%; mRNA inhibition (hCD39 mRNA [3]; 1.3 nM, Table 12): 0.00%; mRNA inhibition (hCD39 mRNA [3]; 4 nM, Table 12): 0.00%; mRNA inhibition (hCD39 mRNA [3]; 12 nM, Table 12): 0.00%; mRNA inhibition (hCD39 mRNA [3]; 40 nM, Table 12): 49.14%; mRNA inhibition (hCD39 mRNA [3]; 110 nM, Table 12): 88.34%; mRNA inhibition (hCD39 mRNA [3]; 330 nM, Table 12): 96.71%; mRNA inhibition (hCD39 mRNA [3]; 1000 nM, Table 12): 97.82%; IC50 (hCD39 mRNA [3]; [4]): 20.5 nM |
| +T*+A*+C*G*T*T*C*A*C*T*A*C*C*T*+T*C*+T (antisense TACGTTCACTACCTTCT; sugars from the 5' end l3 d11 l1 d1 l1, all phosphorothioate, methylation of C not given here) [A04053H] | 0.31 | 0.01 | – | – | – | – | – | – | – | – | – | – | – | – | – | – | – | – | – | – | mRNA inhibition (hCD39 mRNA [3]; 0.45 nM, Table 12): 2.07%; mRNA inhibition (hCD39 mRNA [3]; 1.3 nM, Table 12): 17.51%; mRNA inhibition (hCD39 mRNA [3]; 4 nM, Table 12): 9.81%; mRNA inhibition (hCD39 mRNA [3]; 12 nM, Table 12): 26.67%; mRNA inhibition (hCD39 mRNA [3]; 40 nM, Table 12): 37.75%; mRNA inhibition (hCD39 mRNA [3]; 110 nM, Table 12): 66.64%; mRNA inhibition (hCD39 mRNA [3]; 330 nM, Table 12): 85.19%; mRNA inhibition (hCD39 mRNA [3]; 1000 nM, Table 12): 92.69%; IC50 (hCD39 mRNA [3]; [4]): 67.6 nM |
| +G*+A*+T*A*G*T*T*T*C*C*A*A*T*+A*+C*+C (antisense GATAGTTTCCAATACC; sugars from the 5' end l3 d10 l3, all phosphorothioate, methylation of C not given here) [A04026H] | – | – | 0.07 | 0.08 | 0.03 | 0.03 | 29.98 | 29.02 | 54.32 | 77.36 | 92.99 | 96.69 | 99.20 | 98.59 | 61.5 | – | – | – | – | – | – |
| +T*+T*+A*C*G*T*T*C*A*C*T*A*C*C*+T*+T*+C (antisense TTACGTTCACTACCTTC; sugars from the 5' end l3 d11 l3, all phosphorothioate, methylation of C not given here) [A04044H] | – | – | 0.07 | 0.04 | 0.05 | * | – | – | – | – | – | – | – | – | – | 12.17 | 26.25 | 45.88 | 68.28 | 82.63 | mRNA inhibition (hCD39 mRNA [3]; 1.1 μM, Table 8): 91.19%; mRNA inhibition (hCD39 mRNA [3]; 3.3 μM, Table 8): 96.20%; mRNA inhibition (hCD39 mRNA [3]; 10 μM, Table 8): 98.71%; IC50 (hCD39 mRNA [3]; [6]): 46.3 nM |
| +C*+A*+G*T*C*A*A*T*C*C*T*G*C*+T*+C*+A (antisense CAGTCAATCCTGCTCA; sugars from the 5' end l3 d10 l3, all phosphorothioate, methylation of C not given here) [A04039H] | – | – | 0.27 | 0.14 | 0.06 | * | – | – | – | – | – | – | – | – | – | 11.56 | 14.30 | 20.47 | 44.03 | 71.25 | mRNA inhibition (hCD39 mRNA [3]; 1.1 μM, Table 8): 85.22%; mRNA inhibition (hCD39 mRNA [3]; 3.3 μM, Table 8): 92.53%; mRNA inhibition (hCD39 mRNA [3]; 10 μM, Table 8): 96.54%; IC50 (hCD39 mRNA [3]; [6]): 177 nM |
| +G*+T*+A*A*G*C*C*C*T*G*A*T*+G*+T*+T (antisense GTAAGCCCTGATGTT; sugars from the 5' end l3 d9 l3, all phosphorothioate, methylation of C not given here) [A04019H] | 0.00 | 0.01 | 0.03 | 0.03 | 0.08 | 0.08 | 22.53 | 49.52 | 62.95 | 82.63 | 93.96 | 97.94 | 99.04 | 99.00 | 11.6 | −11.65 | 8.19 | 38.76 | 69.42 | 88.83 | mRNA inhibition (hCD39 mRNA [3]; 1.1 μM, Table 8): 95.46%; mRNA inhibition (hCD39 mRNA [3]; 3.3 μM, Table 8): 97.89%; mRNA inhibition (hCD39 mRNA [3]; 10 μM, Table 8): 98.39%; IC50 (hCD39 mRNA [3]; [6]): 40 nM |
| +G*+A*G*T*G*C*C*T*G*A*T*C*C*+T*+T (antisense GAGTGCCTGATCCTT; sugars from the 5' end l2 d11 l2, all phosphorothioate, methylation of C not given here) [A04010H] | – | – | 0.10 | 0.11 | 0.17 | 0.15 | 20.11 | 24.68 | 52.80 | 76.16 | 90.86 | 95.99 | 98.10 | 98.77 | 51.6 | – | – | – | – | – | – |
